According to patent US20160193206A1, “BET-PROTEIN-INHIBITING DIHYDROPYRIDOPYRAZINONES” (BAYER PHARMA AKTIENGESELLSCHAFT, priority 2012, published 2016):

Tests used:
[1] = target: T1, BRD4 bromo domain 1 [BRD4(1)] (Homo sapiens, UniProt O60885); assay: BRD4(1)/acetylated peptide H4 binding assay (TR-FRET); details: inhibition of interaction between His6-tagged BRD4(1) (amino acids 67-152) and acetylated histone H4 peptide
T1 construct: N-terminally His6-tagged BRD4(1) (amino acids 67-152); made in house; host or cells: E. coli
From the text: (§1) Protein-Protein Interaction Assay: BRD4/Acetylated Peptide H4 Binding Assay
1. Assay Description for BRD4 Bromo Domain 1 [BRD4(1)]
To assess the BRD4(1) binding strength of the substances described in this application, the ability thereof to inhibit the interaction between BRD4(1) and acetylated histone H4 in a dose-dependent manner was quantified.
(§2) For this purpose, a time-resolved fluorescence resonance energy transfer (TR-FRET) assay was used, which measures the binding between N-terminally His6-tagged BRD4(1) (amino acids 67-152) and a synthetic acetylated histone H4 (Ac-H4) peptide with sequence GRGK(Ac)GGK(Ac)GLGK(Ac)GGAK(Ac)RHGSGSK-biotin. The recombinant BRD4(1) protein produced in-house according to Filippakopoulos et al., Cell, 2012, 149:214-231 was expressed in E. coli and purified by means of (Ni-NTA) affinity and (Sephadex G-75) size exclusion chromatography. The Ac-H4 peptide can be purchased, for example, from Biosyntan (Berlin, Germany).
(§3) In the assay, typically 11 different concentrations of each substance (0.1 nM, 0.33 nM, 1.1 nM, 3.8 nM, 13 nM, 44 nM, 0.15 μM, 0.51 μM, 1.7 μM, 5.9 μM and 20 μM) were analysed as duplicates on the same microtitre plate. For this purpose, 100-fold concentrated solutions in DMSO were prepared by serial dilutions (1:3.4) of a 2 mM stock solution into a clear, 384-well microtitre plate (Greiner Bio-One, Frickenhausen, Germany). From this, 50 nl were transferred into a black test plate (Greiner Bio-One, Frickenhausen, Germany). The test was started by the addition of 2 μl of a 2.5-fold concentrated BRD4(1) solution (final concentration typically 10 nM in the 5 μl of reaction volume) in aqueous assay buffer [50 mM HEPES pH 7.5, 50 mM sodium chloride (NaCl), 0.25 mM CHAPS and 0.05% serum albumin (BSA)] to the substances in the test plate. This was followed by a 10-minute incubation step at 22° C. for the pre-equilibration of putative complexes between BRD4(1) and the substances.
(§4) The mixture was then incubated in the dark at 22° C. for one hour and then at 4° C. for at least 3 hours and for no longer than overnight. The formation of BRD4(1)/Ac-H4 complexes was determined by the measurement of the resonance energy transfer from the streptavidin-Eu cryptate to the anti-6His-XL665 antibody present in the reaction. For this purpose, the fluorescence emission was measured at 620 nm and 665 nm after excitation at 330-350 nm in a TR-FRET measuring instrument, for example a Rubystar or Pherastar (both from BMG Lab Technologies, Offenburg, Germany) or a Viewlux (Perkin-Elmer). The ratio of the emissions at 665 nm and at 622 nm was taken as an indicator of the amount of BRD4(1)/Ac-H4 complexes formed.
(§5) The data (ratios) obtained were normalized, with 0% inhibition corresponding to the mean from the measurements for a set of controls (typically 32 data points) in which all the reagents were present. In these, in place of test substances, 50 nl of DMSO (100%) were used. Inhibition of 100% corresponded to the mean from the measurements for a set of controls (typically 32 data points) in which all the reagents except BRD4(1) were present. The IC50 was determined by regression analysis based on a 4-parameter equation (minimum, maximum, IC50, Hill; Y=max+(min−max)/(1+(X/IC50)Hill).

[2] = target: T2, BRD4 bromo domain 2 [BRD4(2)] (Homo sapiens, UniProt O60885); assay: BRD4(2)/acetylated peptide H4 binding assay (TR-FRET); details: inhibition of interaction between His6-tagged BRD4(2) (amino acids 357-445) and acetylated histone H4 peptide
T2 construct: N-terminally His6-tagged BRD4(2) (amino acids 357-445); made in house; host or cells: E. coli
From the text: as §1
2. Assay Description for BRD4 Bromo Domain 2 [BRD4(2)]
To assess the BRD4(2) binding strength of the substances described in this application, the ability thereof to inhibit the interaction between BRD4(2) and acetylated histone H4 in a dose-dependent manner was quantified.
as §2, with “BRD4(2)” for “BRD4(1)”, “357-445)” for “67-152)”, “SGRGK(Ac)GGK(Ac)GLGK(Ac)GGAK(Ac)RHRKVLRDNGSGSK-biotin.” for “GRGK(Ac)GGK(Ac)GLGK(Ac)GGAK(Ac)RHGSGSK-biotin.”
as §3, with “concentrated BRD4(2)” for “concentrated BRD4(1)”, “typically 100” for “typically 10”, “chloride (NaCl); 50 mM potassium fluoride (KF);” for “chloride (NaCl),”, “between BRD4(2)” for “between BRD4(1)”
as §4, with “BRD4(2)/Ac-H4” for “BRD4(1)/Ac-H4”, “chelate” for “cryptate”
as §5, with “BRD4(2)” for “BRD4(1)”

SMILES	IC50 [1] [nM]	IC50 [2] [nM]
COc1cc(C(=O)N2CC3(CCS3(=O)=O)C2)ccc1Nc1ccc2c(n1)N(C1CCCCC1)[C@H](C)C(=O)N2C [Example 74, (3R)-4-Cyclohexyl-6-({4-[(1,1-dioxido-1-thia-6-azaspiro[3.3]hept-6-yl)carbonyl]-2-methoxyphenyl}amino)-1,3-dimethyl-3,4-dihydropyrido[2,3-b]pyrazin-2(1H)-one]	300	156
C[C@@H]1C(=O)N(C)c2ccc(Nc3ccc(C(=O)N4CCN(C(=O)OC(C)(C)C)CC4)cc3)nc2N1Cc1ccccc1 [Example 76, tert-Butyl 4-(4-{[(3R)-4-benzyl-1,3-dimethyl-2-oxo-1,2,3,4-tetrahydropyrido[2,3-b]pyrazin-6-yl]amino}benzoyl)piperazine-1-carboxylate]	840	273
C[C@@H]1C(=O)N(C)c2ccc(Nc3ccc(C(=O)NC4CN(C)C4)cc3)nc2N1C1CCCCCC1 [Example 85, 4-{[(3R)-4-Cycloheptyl-1,3-dimethyl-2-oxo-1,2,3,4-tetrahydropyrido[2,3-b]pyrazin-6-yl]amino}-N-(1-methylazetidin-3-yl)benzamide]	186	98
COc1cc(C(=O)NC2CCN(C(C)=O)CC2)ccc1Nc1ccc2c(n1)N(C1CCCCCC1)[C@H](C)C(=O)N2C [Example 88, N-(1-Acetylpiperidin-4-yl)-4-{[(3R)-4-cycloheptyl-1,3-dimethyl-2-oxo-1,2,3,4-tetrahydropyrido[2,3-b]pyrazin-6-yl]amino}-3-methoxybenzamide]	339	146
C[C@@H]1C(=O)N(C)c2ccc(Nc3ccc(C(=O)NC4CCC(O)CC4)cc3)nc2N1C1CCCCCC1 (stereo partly drawn) [Example 90, 4-{[(3R)-4-Cycloheptyl-1,3-dimethyl-2-oxo-1,2,3,4-tetrahydropyrido[2,3-b]pyrazin-6-yl]amino}-N-(4-hydroxycyclohexyl)benz-amide]	341	208
C[C@@H]1C(=O)N(C)c2ccc(Nc3ccc(C(=O)N4CC5(COC5)C4)cc3)nc2N1C1CCCCCC1 [Example 93, (3R)-4-Cycloheptyl-1,3-dimethyl-6-{[4-(2-oxa-6-azaspiro[3.3]hept-6-ylcarbonyl)phenyl]amino}-3,4-dihydropyrido[2,3-b]pyrazin-2(1H)-one]	317	90
C[C@@H]1C(=O)N(C)c2ccc(Nc3ccc(S(=O)(=O)N(C)C)cc3)nc2N1Cc1ccccc1 [Example 94, 4-{[(3R)-4-Benzyl-1,3-dimethyl-2-oxo-1,2,3,4-tetrahydropyrido[2,3-b]pyrazin-6-yl]amino}-N,N-dimethylbenzenesulphonamide]	156	111

Further lines, results first:

IC50 [1] [nM]	IC50 [2] [nM]	SMILES
448	165	COc1cc(C(=O)N2CC3(CCS3(=O)=O)C2)ccc1Nc1ccc2c(n1)N(C1CCCCCC1)[C@H](C)C(=O)N2C [Example 84, (3R)-4-Cycloheptyl-6-({4-[(1,1-dioxido-1-thia-6-azaspiro[3.3]hept-6-yl)carbonyl]-2-methoxyphenyl}amino)-1,3-dimethyl-3,4-dihydropyrido[2,3-b]pyrazin-2(1H)-one]
180	100	CC(=O)N1CCC(NC(=O)c2ccc(Nc3ccc4c(n3)N(C3CCCCCC3)[C@H](C)C(=O)N4C)cc2)CC1 [Example 86, N-(1-Acetylpiperidin-4-yl)-4-{[(3R)-4-cycloheptyl-1,3-dimethyl-2-oxo-1,2,3,4-tetrahydropyrido[2,3-b]pyrazin-6-yl]amino}benzamide]
216	75	COc1cc(C(=O)NC2CN(C)C2)ccc1Nc1ccc2c(n1)N(C1CCCCCC1)[C@H](C)C(=O)N2C [Example 87, 4-{[(3R)-4-Cycloheptyl-1,3-dimethyl-2-oxo-1,2,3,4-tetrahydropyrido[2,3-b]pyrazin-6-yl]amino}-3-methoxy-N-(1-methylazetidin-3-yl)benzamide]
185	93	C[C@@H]1C(=O)N(C)c2ccc(Nc3ccc(C(=O)NCCN4CCN(C)CC4)cc3)nc2N1C1CCCCCC1 [Example 89, 4-{[(3R)-4-Cycloheptyl-1,3-dimethyl-2-oxo-1,2,3,4-tetrahydropyrido[2,3-b]pyrazin-6-yl]amino}-N-{2-(4-methylpiperazin-1-yl)ethyl]benzamide]
325	209	CC(C)N1CCN(C(=O)c2ccc(Nc3ccc4c(n3)N(C3CCCCCC3)[C@H](C)C(=O)N4C)cc2)CC1 [Example 92, (3R)-4-Cylcoheptyl-1,3-dimethyl-6-[(4-{[4-(propan-2-yl)piperazin-1-yl]carbonyl}phenyl)amino]-3,4-dihydropyrido[2,3-b]pyrazin-2(1H)-one]
589	126	C[C@@H]1C(=O)N(C)c2ccc(Nc3ccc(S(=O)(=O)N(C)C)cc3)nc2N1C1CCCCCC1 [Example 95, 4-{[(3R)-4-Cycloheptyl-1,3-dimethyl-2-oxo-1,2,3,4-tetrahydropyrido[2,3-b]pyrazin-6-yl]amino}-N,N-dimethylbenzenesulphonamide]
